Assays:
human β-Secretase [1] = biological target: T1, human β-Secretase (Homo sapiens (Human), UniProt P56817); assay: TR-FRET assay; format: biochemical
Method: The β-secretase enzyme used in the TR-FRET is prepared as follows:
(§1) The cDNA for the soluble part of the human β-Secretase (AA 1-AA 460) was cloned using the ASP2-Fc10-1-IRES-GFP-neoK mammalian expression vector. The gene was fused to the Fc domain of IgG1 (affinity tag) and stably cloned into HEK 293 cells.
(§2) The enzyme (truncated form) was diluted to 6 μg/mL (stock 1.3 mg/mL) and the TruPoint BACE1 Substrate to 200 nM (stock 120 μM) in reaction buffer (NaAcetate, chaps, triton x-100, EDTA pH4.5). Enzyme and compound in dimethylsulphoxide (final DMSO concentration 5%) was mixed and pre-incubated for 10 minutes at RT. Substrate was then added and the reaction was incubated for 15 minutes at RT. The reaction was stopped with the addition of 0.35 vol Stop solution (NaAcetate, pH 9). The fluorescence of the product was measured on a Victor II plate reader with excitation wavelengths of 340-485 nm and emission wavelengths of 590-615 nm. […] The dimethylsulphoxide control, instead of test compound, defined the 100% activity level and 0% activity was defined by wells lacking enzyme (replaced with reaction buffer) or by a saturating dose of a known inhibitor, 2-amino-6-[3-(3-methoxyphenyl)phenyl]-3,6-dimethyl-5H-pyrimidin-4-one.

human β-Secretase [2] = biological target: T1, human β-Secretase; assay: Diluted TR-FRET assay; format: biochemical; settings: 50 times less enzyme, 6.5 h reaction time; read-out: IC50 in TR-FRET assay (IC50 from the diluted FRET assay)
Method: as §1, §2
Compounds with a high affinity were further tested in a diluted TR-FRET assay, conditions as described above for the TR-FRET assay, but with 50 times less enzyme and a 6.5 h long reaction time at r.t. in the dark.

[3] = system: sAPPβ release, SH-SY5Y cells; assay: sAPPβ release assay; format: cell-based; settings: 17 h incubation
Method: Thaw cells and seed at a conc. of around 10000 cells/well in DMEM/F-12 with Glutamax, 10% FCS and 1% non-essential amino acids to a 384-well tissue culture treated plate, […] cell susp/well. The cell plates were then incubated for 7-24 h at 37° C., 5% CO2. The cell medium was removed, followed by addition of 30 μL compound diluted in DMEM/F-12 with Glutamax, 10% FCS, 1% non-essential amino acids and 1% PeSt to a final conc. of 1% DMSO. The compounds were incubated with the cells for 17 h (overnight) at 37° C., 5% CO2. Meso Scale Discovery (MSD) plates were used for the detection of sAPPβ release. MSD sAPPβ plates were blocked in 1% BSA in Tris wash buffer (40 μL/well) for 1 h on shake at r.t. and washed 1 time in Tris wash buffer (40 μL/well). 20 μL of medium was transferred to the pre-blocked and washed MSD sAPPβ microplates, and the cell plates were further used in an ATP assay to measure cytotoxicity. The MSD plates were incubated with shaking at r.t. for 2 h and the media discarded. 10 μL detection antibody was added (1 nM) per well followed by incubation with shaking at r.t. for 2 h and then discarded. 40 μL Read Buffer was added per well and the plates were read in a SECTOR Imager.

T1 sequence (P56817 22-460): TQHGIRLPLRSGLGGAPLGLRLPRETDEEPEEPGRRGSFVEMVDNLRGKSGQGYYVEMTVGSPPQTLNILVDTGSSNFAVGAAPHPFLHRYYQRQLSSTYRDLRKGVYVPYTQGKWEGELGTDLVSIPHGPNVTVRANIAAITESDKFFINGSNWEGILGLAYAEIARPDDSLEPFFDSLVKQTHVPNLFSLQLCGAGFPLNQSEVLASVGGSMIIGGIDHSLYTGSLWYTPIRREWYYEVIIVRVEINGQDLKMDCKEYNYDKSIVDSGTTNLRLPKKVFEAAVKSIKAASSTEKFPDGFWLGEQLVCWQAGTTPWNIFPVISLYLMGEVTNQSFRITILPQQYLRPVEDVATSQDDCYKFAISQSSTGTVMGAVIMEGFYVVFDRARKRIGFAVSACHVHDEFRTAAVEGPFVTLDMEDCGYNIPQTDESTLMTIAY

| Structure (SMILES) | IC50 (human β-Secretase [1]) | IC50 (human β-Secretase [2]) | IC50 [3] | IC50 ([3]; Homo sapiens) |
| --- | --- | --- | --- | --- |
| CO[C@H]1CC[C@]2(CC1)Cc1cc(F)c(-c3cc(Cl)cc(C#N)c3)cc1[C@]21N=C(C)C(N)=N1 (single isomer, unassigned; isomer 2) [6 Isomer 2] | > 4.3 µM | – | – | – |
| CO[C@H]1CC[C@]2(CC1)Cc1cc(F)c(-c3cc(F)cc(C#N)c3)cc1[C@]21N=C(C)C(N)=N1 (single isomer, unassigned; isomer 2) [9 Isomer 2] | > 5 µM | – | – | – |
| CO[C@H]1CC[C@]2(CC1)Cc1cc(F)c(-c3cc(F)cc(C#N)c3)cc1[C@@]21N=C(C)C(N)=N1 (single isomer, unassigned; isomer 1) [9 Isomer 1] | – | 0.013 µM | 0.0074 µM | – |
| CO[C@H]1CC[C@]2(CC1)Cc1cc(C)c(Br)cc1C21N=C(C)C(N)=N1 (some centres unmarked) [Example 1, (1r,4r)-6′-Bromo-4-methoxy-5′,5″-dimethyl-3′H-dispiro[cyclohexane-1,2′-indene-1′,2″-imidazol]-4″-amine] | 1.66 µM | – | – | – |
| CO[C@H]1CC[C@]2(CC1)Cc1cc(F)c(-c3cc(Cl)cc(C#N)c3)cc1[C@@]21N=C(C)C(N)=N1 (single isomer, unassigned; isomer 1) [6 Isomer 1] | – | 0.0024 µM | – | – |
| CC#Cc1cncc(-c2cc3c(cc2C)C[C@]2(CC[C@@H](OC)CC2)C32N=C(C)C(N)=N2)c1 (some centres unmarked) [Example 2, (1r,4r)-4-Methoxy-5′,5″-dimethyl-6′-[5-(prop-1-yn-1-yl)pyridin-3-yl]-3′H-dispiro[cyclohexane-1,2′-indene-1′,2″-imidazol]-4″-amine] | – | 0.015 µM | – | 0.017 µM |

More lines, now with the values ahead:

| IC50 (human β-Secretase [1]) | IC50 (human β-Secretase [2]) | IC50 [3] | IC50 ([3]; Homo sapiens) | Structure (SMILES) |
| --- | --- | --- | --- | --- |
| 0.036 µM | – | – | 0.003 µM | CO[C@H]1CC[C@]2(CC1)Cc1cc(F)c(-c3cncc(Cl)c3)cc1C21N=C(C)C(N)=N1 (some centres unmarked) [Example 7, (1r,4r)-6′-(5-Chloropyridin-3-yl)-5′-fluoro-4-methoxy-5″-methyl-3′H-dispiro[cyclohexane-1,2′-indene-1′,2″-imidazol]-4″-amine] |
| 0.023 µM | – | – | 0.0048 µM | CO[C@H]1CC[C@]2(CC1)Cc1cc(F)c(-c3cc(F)cc(C#N)c3)cc1C21N=C(C)C(N)=N1 (some centres unmarked) [Example 8, 3-[(1r,4r)-4″-Amino-5′-fluoro-4-methoxy-5″-methyl-3′H-dispiro[cyclohexane-1,2′-indene-1′,2″-imidazol]-6′-yl]-5-fluorobenzonitrile] |
| 0.023 µM | – | – | – | CO[C@H]1CC[C@]2(CC1)Cc1cc(F)c(-c3cc(Cl)cc(C#N)c3)cc1C21N=C(C)C(N)=N1 (some centres unmarked) [Example 5, 3-[(1s,4s)-4″-Amino-5′-fluoro-4-methoxy-5″-methyl-3′H-dispiro[cyclohexane-1,2′-indene-1′,2″-imidazol]-6′-yl]-5-chlorobenzonitrile] |
| – | 0.024 µM | – | 0.012 µM | CO[C@H]1CC[C@]2(CC1)Cc1cc(C)c(-c3cc(Cl)cc(C#N)c3)cc1C21N=C(C)C(N)=N1 (some centres unmarked) [Example 3, 3-[(1r,4r)-4″-Amino-4-methoxy-5′,5″-dimethyl-3′H-dispiro[cyclohexane-1,2′-indene-1′,2″-imidazol]-6′-yl]-5-chlorobenzonitrile] |
| 0.516 µM | – | – | – | COC1CCC2(CC1)Cc1cc(F)c(Br)cc1C21N=C(C)C(N)=N1 (centres unmarked) [Example 4, 6′-Bromo-5′-fluoro-4-methoxy-5″-methyl-3′H-dispiro[cyclohexane-1,2′-indene-1′,2″-imidazol]-4″-amine] |
| 0.039 µM | – | – | – | CO[C@H]1CC[C@]2(CC1)Cc1cc(F)c(OCCCF)cc1C21N=C(C)C(N)=N1 (some centres unmarked) [Example 10, 5′-Fluoro-6′-(3-fluoropropoxy)-4-methoxy-5″-methyl-3′H-dispiro[cyclohexane-1,2′-indene-1′,2″-imidazol]-4″-amine] |

Source: patent US9000183B2, “Cyclohexane-1,2′-indene-1′,2″-imidazol compounds and their use as BACE inhibitors” (AstraZeneca AB, priority 2012, dated 2015)
